According to patent publication US7563766B2, “Methods and compositions for the promotion of a hair growth utilizing actin binding peptides” (The United States of America as represented by the …, priority 2002, dated 2009):
Ends that are not written are not given here.

Key:
[1] = system: human umbilical vein endothelial cells; experiment: HUVEC migration, Boyden chamber assay; assay type: cell-based; parameters: key to Migration: − = no activity; +/− = low activity; + = active; ++ = high activity; conditions: for Migration: Table 2 score
Description: Cells—HUVECs were isolated and used at passages 2-5. Grant et al., J. Cell Sci. 108:3685-3694 (1995). The cells were cultured in RPMI 1640 (Invitrogen, Carlsbad, Calif.) supplemented with 20% bovine calf serum (Hyclone Laboratories, Logan, Utah), 200 μg/ml of endothelial cell growth supplement (ECGS) (Collaborative Biomedical Products, Bedford, Mass.), 0.8 U/ml heparin sodium (Fisher Scientific, Pittsburgh, Pa.), penicillin/streptomycin (Invitrogen, Carlsbad, Calif.), 10 μg/ml gentamycin (Invitrogen, Carlsbad, Calif.), and 1% fungizone (Invitrogen, Carlsbad, Calif.).
Boyden chamber assay—HUVEC migration assays were conducted in a 48-well micro-chemotaxis chamber (Neuro Probe Inc., Cabin John, Md.) as previously described in Salcedo et al., J. Immunol. 166:7571-7578 (2001). Briefly, PVP-free polycarbonate membranes with 8 μm pores were coated with 50 μg/ml of rat tail collagen (BD Biosciences, Bedford, Mass.) in RPMI 1640 that contained 25 mM HEPES (Invitrogen, Carlsbad, Calif.) at 4° C. overnight. The membranes were dried at least 1 hr prior to use. HUVECs were serum-starved for 2 hr, harvested using Versene (Invitrogen, Carlsbad, Calif.), and resuspended in binding medium that contained RPMI 1640 with 1% BSA and 25 mM HEPES. The lower wells of the chamber were loaded with 1, 10, 100, and 1000 ng/ml of thymosin β4 or peptide fragments that were diluted in binding medium. Basic fibroblast growth factor (bFGF) (200 ng/ml) was used as a positive control. Cells were added to the upper portion of the chamber at a concentration of 50,000 cells per well. The chambers were incubated at 37° C. for 4 hr. The filters were fixed and stained using Diff-Quik (VWR, Bridgeport, N.J.). The cells that successfully migrated through the pores of the membrane were manually quantitated using a CK-2 Olympus microscope at 10× magnification. Each condition was assayed in triplicate, and the assay was repeated twice.

hair follicles = experiment: Topical thymosin β4 on normal (unwounded) shaved rat skin; assay type: in vivo; conditions: 30 days after treatment
Description: In these experiments, 8 week old female Sprague Dawley rats were utilized. Thymosin β4 was applied on the shaved backs of the animals at a concentration of 0.5 mg/ml in hydrogel three times per week (Monday, Wednesday and Friday). The hair of the animals was observed over 30 days. Some of the animals were sacrificed on day 7 after the initiation of treatment, while others were sacrificed on day 30 after initiation of treatment. Tissue sections were prepared using methods known in the art, as indicated above in Example 1. The tissue section samples were all read and compared on a blind basis by an observer trained in dermatology.
One study used shaved rats where thymosin β4 was applied topically on one side of the shaved area and on the opposing lateral side a control vehicle was applied. […] The number of anagen follicles was approximately two-fold greater than in rats treated with the control vehicle alone (see FIG. 7D). […] The increased number of hairs in the anagen phase was retained with continued tri-weekly treatment over 30 days. However, within 14 days of ceasing treatment, the number of active hair follicles decreased to control levels.

chick aortic arches = experiment: Chick aortic arch vessel sprouting assay; assay type: cell-based; parameters: key to Sprouting: − = no activity; +/− = low activity; + = active; ++ = high activity; conditions: for Sprouting: Table 2 score; for activity in the assays (endothelial cell migration and vessel sprouting): statement covers both migration and sprouting assays
Description: Chick aortic arch assay—The aortic arch of 13-day-old chick embryos was removed and placed in RPMI 1640. After removal of surrounding connective tissue, transverse sections of the arch were made (1 mm). The resulting aortic rings were carefully attached to the bottom of a 48-well plate, one ring per well, with 20-30 μl of Matrigel (Collaborative Biomedical Products). The rings were placed so that the lumen of each ring could be seen. More Matrigel was added onto the top of the rings to seal them in place. A 100 μl volume of human endothelial—SFM basal growth medium (Invitrogen) containing 1% penicillin streptomycin was added to each well. Thymosin β4, peptide fragments, and exogenous actin (Sigma Chemical Co.) were added to wells in serum-free medium, bringing the final volume of each well to 400 μl. ECGS (200 μg/ml) was used as a positive control. The plates were incubated for 24 hr at 37° C. Rings were fixed and stained with Diff-Quik solution II. Sprouting was scored in a blind assessment by an observer using 10× magnification on an Olympus microscope. Six wells were used for each condition tested, and each assay was done three times.

[2] = system: male patients between 18 and 41 years of age; post-menopausal women; conditions: cited from earlier work
[3] = 1 mg/day oral for 2 years, male patients 18 to 41 years

amino acid residues 17-22 of SEQ ID NO: 1: six amino acid residues 17-22 of thymosin β4, shorter actin binding sequence (LKKTET; listed as Bos taurus)
endothelial cell migration, in words [1]: promotes endothelial cell migration

CC[C@H](C)[C@H](NC(=O)[C@H](CCC(=O)O)NC(=O)[C@H](C)NC(=O)[C@H](CCSC)NC(=O)[C@H](CC(=O)O)NC(=O)[C@@H]1CCCN1C(=O)[C@H](CCCCN)NC(=O)[C@H](CC(=O)O)NC(=O)[C@H](CO)NC(C)=O)C(=O)N[C@@H](CCC(=O)O)C(=O)N[C@@H](CCCCN)C(=O)N[C@@H](Cc1ccccc1)C(=O)N[C@@H](CC(=O)O)C(=O)N[C@@H](CCCCN)C(=O)N[C@@H](CO)C(=O)N[C@@H](CCCCN)C(=O)N[C@@H](CC(C)C)C(=O)N[C@@H](CCCCN)C(=O)N[C@@H](CCCCN)C(=O)N[C@H](C(=O)N[C@@H](CCC(=O)O)C(=O)N[C@H](C(=O)N[C@@H](CCC(N)=O)C(=O)N[C@@H](CCC(=O)O)C(=O)N[C@@H](CCCCN)C(=O)N[C@@H](CC(N)=O)C(=O)N1CCC[C@H]1C(=O)N[C@@H](CC(C)C)C(=O)N1CCC[C@H]1C(=O)N[C@@H](CO)C(=O)N[C@@H](CCCCN)C(=O)N[C@@H](CCC(=O)O)C(=O)N[C@H](C(=O)N[C@H](C(=O)N[C@@H](CCC(=O)O)C(=O)N[C@@H](CCC(N)=O)C(=O)N[C@@H](CCC(=O)O)C(=O)N[C@@H](CCCCN)C(=O)N[C@@H](CCC(N)=O)C(=O)N[C@@H](C)C(=O)NCC(=O)N[C@@H](CCC(=O)O)C(=O)N[C@@H](CO)C(=O)O)[C@@H](C)CC)[C@@H](C)O)[C@@H](C)O)[C@@H](C)O [Tβ4, Thymosin β4]
change in the epidermis or in the thickness of the dermis (hair follicles): little change | inflammatory cells (hair follicles): some increase

Tβ4^20-48: synthetic, amino acid residues 20-43 of SEQ ID NO: 1 (TETQEKNPLPSKETIEQEKQAGES; listed as Bos taurus)
Sprouting (chick aortic arches): + | activity in the assays (endothelial cell migration and vessel sprouting) (chick aortic arches): generally highly active | Migration [1]: ++

Tβ15^18-28: synthetic peptide of thymosin β15 amino acids 13-23, DK SKLKK TNTE
vessel sprouting, in words (chick aortic arches): active | Sprouting (chick aortic arches): +

Tβ4^10-28: synthetic, amino acid residues 10-28 of SEQ ID NO: 1 (EKFDKSKLKKTETQEKNPL; listed as Bos taurus)
Sprouting (chick aortic arches): ++ | activity in the assays (endothelial cell migration and vessel sprouting) (chick aortic arches): generally highly active | Migration [1]: +

CC(C)(C)NC(=O)[C@H]1CC[C@H]2[C@@H]3CC[C@H]4NC(=O)C=C[C@]4(C)[C@H]3CC[C@]12C [finasteride]
cases in which further hair loss was prevented [2, 3]: 83% | cases with visible hair growth [2, 3]: 66% | efficacy in post-menopausal women ([2]; 1 mg/day over 1 year): ineffective | side effects ([2]; human, in vivo): lack of libido, lack of potency, and mild reduction in semen

Tβ4^1-8: proteolytic fragment of naturally occurring Tβ4, acSDKP DM (Ac-SDKPDM; UniProt P62328 2-7, looked up, fragment)
Sprouting (chick aortic arches): − | activity in the assays (endothelial cell migration and vessel sprouting) (chick aortic arches): inactive

Tβ4^Ala: naturally occurring β-thymosin, acADKP variant of Tβ4 (ADKPDMAEIEKFDKSKLKKTETQEKNPLPSKETIEQEKQAGES; Thymosin beta-4 N-terminal acetyl; UniProt P62328 2-44, looked up, variant S1A)
Sprouting (chick aortic arches): + | activity in the assays (endothelial cell migration and vessel sprouting) (chick aortic arches): active

Tβ4^1-16: synthetic, the first 15 amino acid residues of SEQ ID NO: 1 (SDKPDMAEIEKFDKS; ends and bridges not checked; listed as Bos taurus)
vessel sprouting, in words (chick aortic arches): very weak activity | Sprouting (chick aortic arches): +/− | Migration [1]: −

Tβ4^1-28: proteolytic fragment of naturally occurring Tβ4, residues 1 to KN (SDKPDMAEIEKFDKSKLKKTETQEKN; not fully specified; Thymosin beta-4; UniProt P62328 2-27, looked up, fragment)
Sprouting (chick aortic arches): +/− | activity in the assays (endothelial cell migration and vessel sprouting) (chick aortic arches): generally highly active

thymosin β4-sulfoxide (SDKPDMAEIEKFDKSKLKKTETQEKNPLPSKETIEQEKQAGES; Thymosin beta-4 methionine sulfoxide; UniProt P62328 2-44, looked up) [Tβ4^(O), sulfoxide form prepared from the naturally occurring peptide]
Sprouting (chick aortic arches): ++ | activity in the assays (endothelial cell migration and vessel sprouting) (chick aortic arches): active | Migration [1]: ++

Tβ10: naturally occurring β-thymosin with conserved actin-binding domain (ADKPDMGEIASFDKAKLKKTETQEKNTLPTKETIEQEKRSEIS; UniProt P63313 2-44, looked up)
Sprouting (chick aortic arches): + | activity in the assays (endothelial cell migration and vessel sprouting) (chick aortic arches): active | Migration [1]: ++

Tβ4^7-43: proteolytic fragment of naturally occurring Tβ4, residues 7-43 (AEIEKFDKSKLKKTETQEKNPLPSKETIEQEKQAGES; Thymosin beta-4; UniProt P62328 8-44, looked up, fragment)
Sprouting (chick aortic arches): ++ | activity in the assays (endothelial cell migration and vessel sprouting) (chick aortic arches): generally highly active | Migration [1]: ++

Tβ4^27-48: proteolytic fragment PLP SKETI EQEKQ AGES (PLPSKETIEQEKQAGES; Thymosin beta-4; UniProt P62328 28-44, looked up, fragment)
Sprouting (chick aortic arches): +/− | Migration [1]: +

Tβ4^13-43: proteolytic fragment of naturally occurring Tβ4, residues 13-43 (DKSKLKKTETQEKNPLPSKETIEQEKQAGES; Thymosin beta-4; UniProt P62328 14-44, looked up, fragment)
Sprouting (chick aortic arches): +/− | activity in the assays (endothelial cell migration and vessel sprouting) (chick aortic arches): generally highly active | Migration [1]: +

Tβ4^18-19: synthetic, amino acid residues 13-19 of SEQ ID NO: 1 (DKSKLKK; listed as Bos taurus)
Sprouting (chick aortic arches): − | activity in the assays (endothelial cell migration and vessel sprouting) (chick aortic arches): inactive
